Data set [1] deals with T1, Speckle-type POZ protein-Bromodomain-containing protein 3 (Homo sapiens) (UniProt Q15059+O43791). The experiment in a line: PROTAC activity at SPOP/BRD3 in human HT-29 cells assessed as induction of BRD3 degradation by measuring fold change at 5 uM incubated for 24 hrs by Western blot analysis (reference value: 1.00). It is filed as cell-based. On the technique in general: Immunoblotting shows a protein as a band on a membrane.

Data set [2] concerns the target T2, Speckle-type POZ protein-Bromodomain-containing protein 4 (Homo sapiens, UniProt O60885+O43791). The experiment in a line: PROTAC activity at SPOP/BRD4-S in human HT-29 cells assessed as induction of BRD4 short isoform degradation by measuring fold change at 0.156 uM incubated for 24 hrs by Western blotting analysis (reference value: 1.00). In kind it is cell-based.

Data set [3] has as its target T3, Histone-lysine N-methyltransferase EHMT1 (Homo sapiens, UniProt Q9H9B1).
T3 sequence (Q9H9B1 whole entry): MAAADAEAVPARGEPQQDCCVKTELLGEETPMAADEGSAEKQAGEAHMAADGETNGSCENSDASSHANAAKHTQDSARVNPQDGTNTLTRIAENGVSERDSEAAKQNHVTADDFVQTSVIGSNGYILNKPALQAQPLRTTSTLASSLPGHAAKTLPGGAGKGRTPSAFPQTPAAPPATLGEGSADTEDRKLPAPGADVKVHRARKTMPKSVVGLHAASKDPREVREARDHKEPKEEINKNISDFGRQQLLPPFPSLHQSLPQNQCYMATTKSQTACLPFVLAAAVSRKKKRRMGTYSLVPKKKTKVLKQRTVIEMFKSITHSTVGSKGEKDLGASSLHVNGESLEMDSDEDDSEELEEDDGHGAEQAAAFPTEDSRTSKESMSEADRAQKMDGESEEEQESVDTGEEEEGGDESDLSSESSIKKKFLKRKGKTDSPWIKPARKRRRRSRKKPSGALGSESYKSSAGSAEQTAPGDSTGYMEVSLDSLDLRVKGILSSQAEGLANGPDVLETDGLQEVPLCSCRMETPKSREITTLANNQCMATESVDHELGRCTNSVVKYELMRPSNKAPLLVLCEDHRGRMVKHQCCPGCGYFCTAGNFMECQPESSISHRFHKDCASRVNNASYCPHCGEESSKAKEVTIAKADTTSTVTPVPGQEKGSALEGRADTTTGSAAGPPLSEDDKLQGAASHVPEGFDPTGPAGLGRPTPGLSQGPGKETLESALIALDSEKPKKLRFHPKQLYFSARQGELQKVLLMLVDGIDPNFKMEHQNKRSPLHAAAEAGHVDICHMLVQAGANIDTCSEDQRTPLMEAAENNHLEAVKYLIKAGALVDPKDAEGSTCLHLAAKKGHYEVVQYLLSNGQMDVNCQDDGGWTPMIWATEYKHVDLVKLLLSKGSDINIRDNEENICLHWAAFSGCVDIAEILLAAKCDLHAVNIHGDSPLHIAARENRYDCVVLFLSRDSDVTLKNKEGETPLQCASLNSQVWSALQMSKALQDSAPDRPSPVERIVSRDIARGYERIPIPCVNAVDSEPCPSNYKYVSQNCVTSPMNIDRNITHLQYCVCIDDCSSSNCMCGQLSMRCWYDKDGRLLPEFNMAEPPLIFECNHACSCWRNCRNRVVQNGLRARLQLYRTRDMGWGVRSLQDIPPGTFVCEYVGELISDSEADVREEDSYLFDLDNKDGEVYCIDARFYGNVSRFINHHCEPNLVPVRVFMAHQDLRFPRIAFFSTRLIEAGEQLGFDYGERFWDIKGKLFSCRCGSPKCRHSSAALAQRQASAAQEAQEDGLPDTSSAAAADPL
The data set is described as follows: Binding affinity to recombinant GLP-SET domain (unknown origin) assessed as assessed as dissociation constant by ITC analysis. A general note: Isothermal titration calorimetry measures the heat released or taken up as one component is titrated into another.

For data set [4], the target named is T1, Speckle-type POZ protein-Bromodomain-containing protein 3 (Homo sapiens). The experiment in a line: PROTAC activity at SPOP/BRD3 in human HT-29 cells assessed as induction of BRD3 degradation by measuring fold change at 0.625 uM incubated for 24 hrs by Western blot analysis (reference value: 1.00). In kind it is cell-based.
Data set [5] deals with T2, Speckle-type POZ protein-Bromodomain-containing protein 4. The data set is described as follows: PROTAC activity at SPOP/BRD4-L in human HT-29 cells assessed as induction of BRD4 long isoform degradation by measuring fold change at 0.625 uM incubated for 24 hrs by Western blotting analysis (reference value: 1.00). In kind it is cell-based.
In data set [6] the target is T1, Speckle-type POZ protein-Bromodomain-containing protein 3 (Homo sapiens). The data set is described as follows: PROTAC activity at SPOP/BRD3 in human HT-29 cells assessed as induction of BRD3 degradation by measuring fold change at 1.25 uM incubated for 24 hrs by Western blot analysis (reference value: 1.00). In kind it is cell-based.
A further data set concerns PNT2. The data set is described as follows: Cytotoxicity against human PNT2 assessed as reduction in cell growth at 0.021 to 10 uM incubated for 72 hrs by WST-8 reagent based assay. It is filed as toxicity. The conditions noted are these: pnt2, 72 h, dose 0.021-10 µM. (In general: Tetrazolium assays rely on reduction of a dye to a coloured formazan, in cell work by metabolically active cells.)

Data set [7] addresses T2, Speckle-type POZ protein-Bromodomain-containing protein 4. The data set is described as follows: PROTAC activity at SPOP/BRD4-L in human HT-29 cells assessed as induction of BRD4 long isoform degradation at 5 uM measured after >=48 hrs by Western blotting analysis. In kind it is cell-based.
The target is the same in data set [8]. The experiment in a line: PROTAC activity at SPOP/BRD4-L in human MDA-MB-231 cells assessed as induction of BRD4 long isoform degradation at 0.1 to 5 uM incubated for 24 hrs by Western blotting analysis. In kind it is cell-based. The settings on record: dose 0.1-5 µM.
Data set [9] has the same target. The data set is described as follows: PROTAC activity at SPOP/BRD4-S in human HT-29 cells assessed as induction of BRD4 short isoform degradation by measuring fold change at 0.313 uM incubated for 24 hrs by Western blotting analysis (reference value: 1.00). In kind it is cell-based.

The source made the active and inactive calls. No cut-off for these calls is given here.

T2 sequence (O43791 whole entry, looked up, other chains not shown, canonical isoform): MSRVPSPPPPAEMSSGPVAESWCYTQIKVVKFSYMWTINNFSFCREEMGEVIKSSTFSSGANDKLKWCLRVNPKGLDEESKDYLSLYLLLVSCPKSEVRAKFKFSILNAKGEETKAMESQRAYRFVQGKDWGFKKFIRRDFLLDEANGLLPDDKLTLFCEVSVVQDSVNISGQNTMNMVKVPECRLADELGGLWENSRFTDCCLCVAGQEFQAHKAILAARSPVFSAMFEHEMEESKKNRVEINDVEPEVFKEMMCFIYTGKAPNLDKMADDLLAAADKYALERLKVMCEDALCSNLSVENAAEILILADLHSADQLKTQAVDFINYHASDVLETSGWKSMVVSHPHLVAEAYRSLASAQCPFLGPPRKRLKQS
T1 sequence (O43791 whole entry, looked up): as the sequence (O43791 whole entry, looked up, other chains not shown, canonical isoform) above
T1 sequence (Q15059 whole entry, looked up): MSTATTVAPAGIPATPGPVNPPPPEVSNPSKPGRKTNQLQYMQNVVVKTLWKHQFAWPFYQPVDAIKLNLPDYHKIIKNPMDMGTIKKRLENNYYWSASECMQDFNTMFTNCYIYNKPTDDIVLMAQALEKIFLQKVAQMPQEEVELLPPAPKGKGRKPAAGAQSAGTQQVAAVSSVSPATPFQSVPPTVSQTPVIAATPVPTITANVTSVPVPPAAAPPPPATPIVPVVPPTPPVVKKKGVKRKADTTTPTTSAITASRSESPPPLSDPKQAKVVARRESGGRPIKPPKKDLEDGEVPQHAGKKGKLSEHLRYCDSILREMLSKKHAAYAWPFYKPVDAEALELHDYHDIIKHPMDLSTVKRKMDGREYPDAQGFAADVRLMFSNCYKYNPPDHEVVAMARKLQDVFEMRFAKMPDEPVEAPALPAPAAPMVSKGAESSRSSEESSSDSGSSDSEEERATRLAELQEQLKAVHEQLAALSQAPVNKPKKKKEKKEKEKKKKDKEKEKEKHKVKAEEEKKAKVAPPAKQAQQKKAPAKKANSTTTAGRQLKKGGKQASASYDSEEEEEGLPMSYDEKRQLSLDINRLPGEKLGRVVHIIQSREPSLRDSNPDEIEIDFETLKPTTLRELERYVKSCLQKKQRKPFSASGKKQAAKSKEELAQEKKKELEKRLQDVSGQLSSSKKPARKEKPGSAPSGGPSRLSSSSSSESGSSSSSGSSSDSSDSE

As usually defined, the Kd is the concentration at which binding is half-saturated. With `COc1cc2c(NC3CCN(CCCC(=O)NCCCCCCCCCCNC(=O)C[C@@H]4N=C(c5ccc(Cl)cc5)c5c(sc(C)c5C)-n5c(C)nnc54)CC3)cc(N3CCOCC3)nc2cc1OCCCN1CCCC1`, the fold change (FC) is 0.6 in [1]; 1 in data set [2]; 0.9 in data set [4]; 1.2 in data set [5]; 0.7 in data set [6]; 1.2 in data set [9]. Further, the Kd in data set [3] worked out at 306 nM. In the data set with PNT2, the Activity result is given as “Non-toxic”. Moreover, the outcome in [7] and in data set [8] was Active.
